This is an account of results in patent publication US10829501B2 (BRISTOL-MYERS SQUIBB COMPANY, priority 2016, dated 2020).

Structures can show the parent of a compound that is named as a salt.

Sequence of ROCK2 (O75116 whole entry, species assumed): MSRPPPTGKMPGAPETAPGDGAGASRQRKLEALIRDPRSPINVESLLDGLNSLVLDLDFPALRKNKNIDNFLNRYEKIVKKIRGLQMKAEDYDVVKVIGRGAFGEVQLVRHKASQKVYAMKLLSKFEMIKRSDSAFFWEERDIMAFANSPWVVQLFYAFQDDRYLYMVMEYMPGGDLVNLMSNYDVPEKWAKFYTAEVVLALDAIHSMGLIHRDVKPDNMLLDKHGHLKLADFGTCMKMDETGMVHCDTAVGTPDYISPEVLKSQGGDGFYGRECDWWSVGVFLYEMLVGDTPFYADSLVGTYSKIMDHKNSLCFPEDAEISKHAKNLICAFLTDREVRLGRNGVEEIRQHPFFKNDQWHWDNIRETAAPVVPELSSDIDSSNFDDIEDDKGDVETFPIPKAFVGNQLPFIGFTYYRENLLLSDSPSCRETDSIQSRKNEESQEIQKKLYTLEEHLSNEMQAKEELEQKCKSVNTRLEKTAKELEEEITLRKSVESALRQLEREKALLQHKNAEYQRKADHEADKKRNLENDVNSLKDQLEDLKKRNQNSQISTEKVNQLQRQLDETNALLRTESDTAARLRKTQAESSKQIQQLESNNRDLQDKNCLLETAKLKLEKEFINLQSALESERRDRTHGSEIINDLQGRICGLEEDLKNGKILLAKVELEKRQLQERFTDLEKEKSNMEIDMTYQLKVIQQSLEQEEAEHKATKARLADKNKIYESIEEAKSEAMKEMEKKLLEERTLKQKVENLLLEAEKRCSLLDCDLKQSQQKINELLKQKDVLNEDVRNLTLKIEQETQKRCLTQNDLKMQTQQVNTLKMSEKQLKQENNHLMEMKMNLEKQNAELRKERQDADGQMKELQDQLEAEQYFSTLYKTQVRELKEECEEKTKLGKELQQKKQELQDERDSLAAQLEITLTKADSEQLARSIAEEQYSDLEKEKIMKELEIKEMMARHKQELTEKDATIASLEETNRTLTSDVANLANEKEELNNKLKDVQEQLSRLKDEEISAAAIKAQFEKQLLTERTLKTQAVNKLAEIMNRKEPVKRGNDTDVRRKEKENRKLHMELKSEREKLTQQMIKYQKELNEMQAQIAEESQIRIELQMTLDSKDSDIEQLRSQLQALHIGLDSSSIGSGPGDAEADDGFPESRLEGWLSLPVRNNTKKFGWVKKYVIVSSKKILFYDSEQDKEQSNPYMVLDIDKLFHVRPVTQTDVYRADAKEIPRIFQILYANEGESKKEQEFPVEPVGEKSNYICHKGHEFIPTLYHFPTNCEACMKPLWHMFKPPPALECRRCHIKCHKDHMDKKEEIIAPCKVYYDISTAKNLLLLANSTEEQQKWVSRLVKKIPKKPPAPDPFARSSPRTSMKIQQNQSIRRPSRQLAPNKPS

The first assay has as its system spontaneously hypertensive rat, renal hypertensive rat and deoxycortisone acetate salt hypertensive rat models.
Assay: not given
Particulars: control rats; cited from earlier work.
Turning to `C[C@@H](N)[C@H]1CC[C@H](C(=O)Nc2ccncc2)CC1` [Example Y-27632], the blood pressure entry was “only a minor effect on blood pressure”.

The same assay, now with this note: three rat models of hypertension; cited from earlier work.
Consider `C[C@@H](N)[C@H]1CC[C@H](C(=O)Nc2ccncc2)CC1` [Example Y-27632], for which the blood pressure result was “significantly decrease blood pressure”.

In another assay the test system is neointimal formation.
Assay: not given
The settings on record: rats, balloon injury model; cited from earlier work.
As to `C[C@@H](N)[C@H]1CC[C@H](C(=O)Nc2ccncc2)CC1` [Example Y-27632], the neointimal formation result is “inhibited neointimal formation”.

In a further assay the test system is IL-1 beta-induced coronary stenosis.
Assay: not given
Particulars: long term treatment, porcine model; cited from earlier work.
Consider `O=S(=O)(c1cccc2cnccc12)N1CCCNCC1` [fasudil], for which the coronary constrictive remodeling entry is recorded as “promote a regression of coronary constrictive remodeling” and the coronary stenosis result is reported as “progressively reduce coronary stenosis”.

Another assay relates to rat stroke model.
Assay: not given
Particulars: cited from earlier work.
In the case of `O=S(=O)(c1cccc2cnccc12)N1CCCNCC1` [fasudil], the “infarct size and neurologic deficit” value was “reduce both the infarct size and neurologic deficit”.

The test system of a further assay is congestive heart failure in Dahl salt-sensitive rats.
Assay: not given
Particulars: cited from earlier work.
As to `C[C@@H](N)[C@H]1CC[C@H](C(=O)Nc2ccncc2)CC1` [Example Y-27632], the “ventricular hypertrophy, fibrosis and function” value was “improve ventricular hypertrophy, fibrosis and function”.

The next assay addresses ROCK2 (Homo sapiens, UniProt O75116). The assay is described as follows: ROCK2 kinase inhibition assay (LABCHIP 3000 Reader, FITC peptide substrate).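 Further: rho kinase reaction read by separating phosphorylated from unphosphorylated peptide on chip, with inhibition of kinase activity computed per concentration across a dose-response series.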
Settings: not given
On to `[H][C@]1(Oc2ncccc2C(N)=O)C[C@@]2(C[C@H](NC(=O)c3cnn(-c4ccc(Br)cc4)c3C)C2)C1` (some centres unmarked) [Example 377], for which the concentration for half-maximal inhibition (IC50) fell in the range of 5 to 50 nM.
Same read-out and setting: the same measure for `CC(C)NS(=O)(=O)c1ccccc1C(=O)N[C@H]1CC2(C1)C[C@H](Oc1ncccc1C(N)=O)C2` (stereo partly drawn) [Example 138, 2-(((aR)-6-(2-(N-isopropylsulfamoyl)benzamido)spiro[3.3]heptan-2-yl)oxy)nicotinamide, trifluoroacetate]: 250 to 2500 nM; for `NC(=O)c1ccccc1O[C@H]1CC2(C[C@H](NC(=O)c3cnn4ccccc34)C2)C1` (stereo partly drawn) [Example 303, N-((aR)-6-(2-carbamoylphenoxy)spiro[3.3]heptan-2-yl)pyrazolo[1,5-a]pyridine-3-carboxamide]: 50 to 250 nM; for `Cn1nccc1-c1cc(C#N)cc(C(=O)N[C@H]2CC3(C2)C[C@H](Oc2ncccc2C(N)=O)C3)c1` (stereo partly drawn) [Example 197, 2-(((aR)-6-(3-cyano-5-(1-methyl-1H-pyrazol-5-yl)benzamido)spiro[3.3]heptan-2-yl)oxy)nicotinamide]: 5 to 50 nM.
Still for that read-out and setting: the value for `Cc1cc(C(=O)N[C@H]2CC3(C2)C[C@H](Oc2ncccc2C(N)=O)C3)n(C)n1` (stereo partly drawn) [Example 83, 2-((aR)-6-(1,3-dimethyl-1H-pyrazole-5-carboxamido)spiro[3.3]heptan-2-yl)oxy)nicotinamide, trifluoroacetate] was 250 to 2500 nM; that for `Cc1c(OCC(C)(C)O)ccc2c(C(=O)N[C@H]3CC4(C3)C[C@H](Oc3ncccc3C(N)=O)C4)cnn12` (stereo partly drawn) [Example 321, N-((aR)-6-((3-carbamoylpyridin-2-yl)oxy)spiro[3.3]heptan-2-yl)-6-(2-hydroxy-2-methylpropoxy)-7-methylpyrazolo[1,5-a]pyridine-3-carboxamide] was 5 to 50 nM; that for `[H][C@]1(Oc2ncccc2C(N)=O)C[C@@]2(C[C@H](NC(=O)c3cn4cc(C(N)=O)ccc4n3)C2)C1` (stereo partly drawn) [Example 63, N^2-((aR)-6-((3-carbamoylpyridin-2-yl)oxy)spiro[3.3]heptan-2-yl)imidazo[1,2-a]pyridine-2,6-dicarboxamide] was 250 to 2500 nM.
Regarding `Cn1nc(C(=O)NC2CC3(C2)CC(Oc2ccccc2C(N)=O)C3)c2ccccc21` (centres unmarked) [Example 2, N-(6-(2-carbamoylphenoxy)spiro[3.3]heptan-2-yl)-1-methyl-1H-indazole-3-carboxamide], the 50% inhibitory concentration (IC50) is 50 to 250 nM.
On the same count and under the same terms, the value for `CC(C)(O)COc1ccc2c(C(=O)NC3CC4(C3)CC(Oc3cc(-c5cccc(C(F)F)c5)ccc3C(N)=O)C4)cnn2c1` (centres unmarked) [Example 241, N-(6-((4-carbamoyl-3′-(difluoromethyl)-[1,1′-biphenyl]-3-yl)oxy)spiro[3.3]heptan-2-yl)-6-(2-hydroxy-2-methylpropoxy)pyrazolo[1,5-a]pyridine-3-carboxamide] was 5 to 50 nM; that for `NC(=O)c1cccnc1O[C@H]1CC2(C[C@H](NC(=O)c3cnn4cc(OCCCC(F)(F)F)ccc34)C2)C1` (stereo partly drawn) [Example 122, N-((aR)-6-((3-carbamoylpyridin-2-yl)oxy)spiro[3.3]heptan-2-yl)-6-(4,4,4-trifluorobutoxy) pyrazolo[1,5-a]pyridine-3-carboxamide, trifluoroacetate] was 5 to 50 nM; that for `N#Cc1ccc(-c2ncc(C(=O)NC3CC4(C3)CC(Oc3ncccc3C(N)=O)C4)s2)cc1` [Example 418, N-((aR)-6-((3-carbamoylpyridin-2-yl)oxy)spiro[3.3]heptan-2-yl)-2-(4-cyanophenyl)thiazole-5-carboxamide, TFA] was 5 to 50 nM.
Same read-out and setting: the value for `CC(C)(O)COc1ccc2c(C(=O)NC3CC4(C3)CC(Oc3cc(-c5ncccn5)ccc3C(N)=O)C4)cnn2c1` (centres unmarked) [Example 222, N-(6-(2-carbamoyl-5-(pyrimidin-2-yl)phenoxy)spiro[3.3]heptan-2-yl)-6-(2-hydroxy-2-methylpropoxy)pyrazolo[1,5-a]pyridine-3-carboxamide] was 5 to 50 nM.
Consider `Cn1c(-c2nc(C(=O)N[C@H]3CC4(C3)C[C@H](Oc3ncccc3C(N)=O)C4)cs2)nc2ccccc21` (stereo partly drawn) [Example 146, N-((aR)-6-((3-carbamoylpyridin-2-yl)oxy)spiro[3.3]heptan-2-yl)-2-(1-methyl-1H-benzo[d]imidazol-2-yl)thiazole-4-carboxamide, trifluoroacetate], for which the half-maximal inhibitory concentration (IC50) was 50 to 250 nM.
On the same count and under the same terms, the same measure for `COc1ccc(NC(=O)N[C@H]2CC3(C2)C[C@H](Oc2ccccc2C(N)=O)C3)cc1` (stereo partly drawn) [Example 40, 2-[((aR)-6-{[(4-methoxyphenyl)carbamoyl]amino}spiro[3.3]heptan-2-yl)oxy]benzamide]: 50 to 250 nM; for `CC(C)(O)COc1ccc2c(C(=O)NC3CC4(C3)CC(Oc3ccc(F)cc3C(N)=O)C4)cnn2c1C1CC1` (centres unmarked) [Example 271, N-(6-(2-carbamoyl-4-fluorophenoxy)spiro[3.3]heptan-2-yl)-7-cyclopropyl-6-(2-hydroxy-2-methylpropoxy)pyrazolo[1,5-a]pyridine-3-carboxamide]: 5 to 50 nM; for `CC(C)(O)COc1ccc2c(C(=O)NC3CC4(C3)CC(Oc3cc(-c5cccc(N)n5)ccc3C(N)=O)C4)cnn2c1` (centres unmarked) [Example 236, N-(6-(5-(6-aminopyridin-2-yl)-2-carbamoylphenoxy)spiro[3.3]heptan-2-yl)-6-(2-hydroxy-2-methylpropoxy)pyrazolo[1,5-a]pyridine-3-carboxamide]: 5 to 50 nM.
The same measure, in the same setting: the same measure for `COc1ccc(OC2CC3(CC(NC(=O)c4cnn5c(C6CC6)c(OCC(C)(C)O)ccc45)C3)C2)c(C(N)=O)c1` (centres unmarked) [Example 213, N-(6-(2-carbamoyl-4-methoxyphenoxy)spiro[3.3]heptan-2-yl)-7-cyclopropyl-6-(2-hydroxy-2-methylpropoxy)pyrazolo[1,5-a]pyridine-3-carboxamide]: 5 to 50 nM; for `NC(=O)c1cccnc1O[C@H]1CC2(C[C@H](NC(=O)c3cnc4cc(C(F)(F)F)ccn34)C2)C1` (stereo partly drawn) [Example 334, N-((aR)-6-((3-carbamoylpyridin-2-yl)oxy)spiro[3.3]heptan-2-yl)-7-(trifluoromethyl)imidazo[1,2-a]pyridine-3-carboxamide]: 50 to 250 nM; for `N#Cc1cc(C(=O)N[C@H]2CC3(C2)C[C@H](Oc2ncccc2C(N)=O)C3)cc(-c2ccc3c(c2)CCC(=O)N3)c1` (stereo partly drawn) [Example 189, 2-((aR)-6-(3-cyano-5-(2-oxo-1,2,3,4-tetrahydroquinolin-6-yl)benzamido)spiro[3.3]heptan-2-yl)oxy)nicotinamide, trifluoroacetate]: below 5 nM.

The same assay, now with this note: read-out: ROCK2 Activity (ROCK2 IC50); 5 μM ATP, 1.5 μM peptide substrate, pH 7.5.
Regarding `Cc1c(C(=O)N[C@H]2CC3(C2)C[C@H](Oc2ncccc2C(N)=O)C3)cnn1-c1ccc(C#N)cc1F` (stereo partly drawn) [Example 388, N-[(aR)2-({6-[1-(4-cyano-2-fluorophenyl)-5-methyl-1H-pyrazole-4-amido]spiro[3.3]heptan-2-yl}oxy)pyridine-3-carboxamide 1 trifluoroacetic acid salt], the 50% inhibitory concentration (IC50) is 50 to 250 nM.
On the same count and under the same terms, the same measure for “N-((aR)-6-((3- carbamoylpyridin-2- yl)oxy))spiro[3.3] heptan-2-yl)- 6-((E)-3,3,3- trifluoroprop-1- en-1-yl) pyrazolo[1,5- a]pyridine-3- carboxamide, trifluoroacetate [Example 116]”: 5 to 50 nM; for `NC(=O)c1cccnc1OC1CC2(CC(NC(=O)c3cnn4c(C5CC5)c(OCC5(O)CCC5)ccc34)C2)C1` [Example 462, N-((aR)-6-((3-carbamoylpyridin-2-yl)oxy)spiro[3.3]heptan-2-yl)-7-cyclopropyl-6-((1-hydroxycyclobutyl)methoxy)pyrazolo[1,5-a]pyridine-3-carboxamide, TFA]: below 5 nM.
Same read-out and setting: the value for `NC(=O)c1cccnc1OC1CC2(CC(NC(=O)c3cc(N4CC5CC4CO5)cc(C(F)(F)F)c3)C2)C1` [Example 452, 2-(((aR)-6-(3-(2-oxa-5-azabicyclo[2.2.1]heptan-5-yl)-5-(trifluoromethyl)benzamido)spiro[3.3]heptan-2-yl)oxy)nicotinamide] was 5 to 50 nM.
Same read-out and setting: the value for `Cc1c(C(=O)N[C@H]2CC3(C2)C[C@H](Oc2ncccc2C(N)=O)C3)cnn1Cc1ccc(F)cc1` (stereo partly drawn) [Example 383, N-[(aR)2-[(6-{1-[(4-fluorophenyl)methyl]-5-methyl-1H-pyrazole-4-amido}spiro[3.3]heptan-2-yl)oxy]pyridine-3-carboxamide 1 trifluoroacetic acid salt] was 5 to 50 nM; that for “2-(((aR)-6-(1- (pyridin-2-yl)-5- (trifluoromethyl)- 1H-pyrazole-4- carboxamido) spiro[3.3]heptan-2- yl)oxy) nicotinamide [Example 129]” was 250 to 2500 nM.
